Data taken from patent publication US8580815B2, “Derivatives of azaindoles as inhibitors of protein kinases ABL and SRC” (Oribase Pharma, priority 2009, dated 2013).
Where two headings read alike, the source gives them in different places.

Assays:
Src kinase = Src kinase (Homo sapiens (Human), UniProt P12931); assay: Reaction Biology Corp. kinase assay, Src; details: compounds tested by Reaction Biology Corp.; for inhibition at 10 µM: read-out: % inhibition of kinase activity, Src (category), 10 μM; for IC50: IC50 on kinase Src (category), ATP at 10 μM
Chain of Src kinase (P12931 whole entry, looked up): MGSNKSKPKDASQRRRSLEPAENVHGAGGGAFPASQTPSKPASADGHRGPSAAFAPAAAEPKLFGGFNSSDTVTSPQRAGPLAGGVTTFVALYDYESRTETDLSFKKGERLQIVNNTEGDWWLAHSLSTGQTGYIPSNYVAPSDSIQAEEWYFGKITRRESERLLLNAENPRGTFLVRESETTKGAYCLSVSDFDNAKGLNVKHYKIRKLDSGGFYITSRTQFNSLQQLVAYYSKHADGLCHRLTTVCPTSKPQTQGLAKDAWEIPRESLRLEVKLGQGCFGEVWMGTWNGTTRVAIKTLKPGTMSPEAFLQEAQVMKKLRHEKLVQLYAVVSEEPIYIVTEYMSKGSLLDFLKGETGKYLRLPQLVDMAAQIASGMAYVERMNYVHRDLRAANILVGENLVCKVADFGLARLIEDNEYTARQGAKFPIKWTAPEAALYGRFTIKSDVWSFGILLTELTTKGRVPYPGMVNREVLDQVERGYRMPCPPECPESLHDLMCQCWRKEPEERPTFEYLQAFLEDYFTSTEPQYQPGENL

[1] = tested on: K562 cells expressing kinase Bcr-AbI; assay: Inhibition of cellular proliferation (MTT), K562 cells; format: cell-based, human; details: Homo sapiens
Method: Cellular tests were carried out at the Montpellier Cancer Research Centre. The inhibition of proliferation by our compounds was analysed on 2 cell lines (U937 and K562) by calculating the IC50, testing 6 concentrations in triplicate for each of the compounds and for each line.
Cells in exponential phase were seeded in 96-well plates at a concentration of 10^4 cells/100 μL/well. The final concentrations of compound in the well in contact with the cells were 0.1; 0.3; 0.9; 3.3; 10; 30; 90 μM. […]

Abl WT = Abl WT (Homo sapiens (Human), UniProt P00519); assay: Reaction Biology Corp. kinase assay, Abl WT; format: biochemical; details: compounds tested by Reaction Biology Corp.; for inhibition at 10 µM: read-out: % inhibition of kinase activity, Abl WT (category); for IC50: ATP at 10 μM, read-out: IC50 on kinase Abl WT (category)
Method: (§1) 4 compounds were tested for their capacity to inhibit various mutated kinases AbI (American company, Reaction Biology Corp.).

Abl T315I = Abl T315I (Homo sapiens (Human), UniProt P00519, T315I); assay: Reaction Biology Corp. kinase assay, mutated Abl T315I; format: biochemical; details: Reaction Biology Corp.; for inhibition at 10 µM: read-out: % inhibition of kinase activity, Abl T315I (category); for IC50: ATP at 10 μM, read-out: IC50 on kinase Abl T315I (category)
Method: as §1

[2] = K562, 24 h, 24 h incubation, read-out: IC50 at 24 h on K562 (category)
[3] = K562, 72 h, read-out: IC50 at 72 h on K562 (category), 72 h incubation
[4] = K562, incubation time not stated (24 h and/or 72 h), read-out: IC50 for the K562 Bcr-AbI kinase (category)

Q: For `COC(=O)c1cc2cc(NC(=O)c3ccccc3C)cnc2[nH]1` [ND0076, Methyl 5-(2-methylbenzamido)-1H-pyrrolo[2,3-b]pyridine-2-carboxylate], which inhibition at 10 µM (Src kinase) is on record?
A: > 50%

Q: And the IC50 [1, 2]?
A: 1000 to 10000 nM

Q: What about the IC50 [1, 3] of the same compound?
A: 10 to 1000 nM

Q: And the IC50 [1, 4]?
A: 10 nM

Q: And the inhibition at 10 µM (Abl WT)?
A: > 50%

Q: What about the IC50 (Abl WT) of the same compound?
A: 100 to 10000 nM

Q: What about the inhibition at 10 µM (Abl T315I) of the same compound?
A: < 10%

Q: What does the source list for `COC(=O)c1cc2cc(NCc3c(Cl)cccc3Cl)cnc2[nH]1` [ND0087]?
A: IC50 (Src kinase): 1 to 100 nM; inhibition at 10 µM (Src kinase): > 50%; IC50 [1, 2]: 1000 to 10000 nM; IC50 [1, 3]: 10 to 1000 nM; IC50 [1, 4]: 10 nM; inhibition at 10 µM (Abl WT): > 50%; IC50 (Abl WT): 1 to 100 nM; inhibition at 10 µM (Abl T315I): 10 to 50%

Q: For `COC(=O)c1cc2cc(NCc3c(C)cccc3Cl)cnc2[nH]1` [ND0089], which IC50 (Src kinase) is on record?
A: 1 to 100 nM

Q: What about the inhibition at 10 µM (Src kinase) of the same compound?
A: > 50%

Q: And the IC50 [1, 2]?
A: > 10000 nM

Q: And the IC50 [1, 3]?
A: 10 to 1000 nM

Q: What about the inhibition at 10 µM (Abl WT) of the same compound?
A: > 50%

Q: And the IC50 (Abl WT)?
A: 1 to 100 nM

Q: What about the inhibition at 10 µM (Abl T315I) of the same compound?
A: < 10%

Q: Which results are given for `COC(=O)c1cc2cc(NCc3ccccc3C)cnc2[nH]1` [ND0090]?
A: IC50 (Src kinase): 1 to 100 nM; inhibition at 10 µM (Src kinase): > 50%; IC50 [1, 2]: 1000 to 10000 nM; IC50 [1, 3]: 10 to 1000 nM; IC50 [1, 4]: 10 nM; inhibition at 10 µM (Abl WT): > 50%; IC50 (Abl WT): 1 to 100 nM; inhibition at 10 µM (Abl T315I): 10 to 50%

Q: With `COC(=O)c1cc2cc(NCc3ccc4[nH]ccc4c3)cnc2[nH]1` [ND0096] as the compound, how does the IC50 (Src kinase) read?
A: 100 to 10000 nM

Q: What about the inhibition at 10 µM (Src kinase) of the same compound?
A: > 50%

Q: And the IC50 [1, 2]?
A: 1000 to 10000 nM

Q: What about the IC50 [1, 3] of the same compound?
A: 10 to 1000 nM

Q: What about the IC50 [1, 4] of the same compound?
A: 10 nM

Q: And the inhibition at 10 µM (Abl WT)?
A: > 50%

Q: And the IC50 (Abl WT)?
A: 1 to 100 nM

Q: And the inhibition at 10 µM (Abl T315I)?
A: > 50%

Q: What about the IC50 (Abl T315I) of the same compound?
A: 100 to 10000 nM

Q: With `COC(=O)c1cc2cc(NC(=O)c3cc(NC(=O)c4ccc(CN5CCN(C)CC5)cc4)ccc3C)cnc2[nH]1` [ND0117, methyl 5-(5-(4-((4-methylpiperazin-1-yl)methyl)benzamido)-2-methylbenzamido)-1H-pyrrolo[2,3-b]pyridine-2-carboxylate] as the compound, how does the IC50 (Src kinase) read?
A: 1 to 100 nM

Q: What about the inhibition at 10 µM (Src kinase) of the same compound?
A: > 50%

Q: And the IC50 [1, 2]?
A: 10 nM

Q: And the IC50 [1, 3]?
A: < 10 nM

Q: What about the IC50 [1, 4] of the same compound?
A: 10 nM

Q: And the inhibition at 10 µM (Abl WT)?
A: > 50%

Q: And the IC50 (Abl WT)?
A: < 1 nM

Q: What about the inhibition at 10 µM (Abl T315I) of the same compound?
A: 10 to 50%

Q: Which IC50 (Src kinase) does the source give for `COC(=O)c1cc2cc(NCc3cc(NC(=O)c4ccc(CN5CCN(C)CC5)cc4)ccc3C)cnc2[nH]1` [ND0118, methyl 5-(5-(4-((4-methylpiperazin-1-yl)methyl)benzamido)-2-methyl-benzylamino)-1H-pyrrolo[2,3-b]pyridine-2-carboxylate] here?
A: < 1 nM

Q: And the inhibition at 10 µM (Src kinase)?
A: > 50%

Q: And the IC50 [1, 2]?
A: 1000 to 10000 nM

Q: What about the IC50 [1, 3] of the same compound?
A: < 10 nM

Q: What about the inhibition at 10 µM (Abl WT) of the same compound?
A: > 50%

Q: What about the IC50 (Abl WT) of the same compound?
A: < 1 nM

Q: What about the inhibition at 10 µM (Abl T315I) of the same compound?
A: > 50%

Q: And the IC50 (Abl T315I)?
A: 100 to 10000 nM

Q: How did the IC50 (Src kinase) turn out when `COC(=O)c1cc2cc(NC(=O)c3cc(NC(=O)c4ccc(CN5CCC(N(C)C)C5)c(C(F)(F)F)c4)ccc3C)cnc2[nH]1` (stereo not shown) [ND0119, methyl 5-(5-(4-((3-(dimethylamino)pyrrolidin-1-yl)methyl)-3-(trifluoro-methyl)benzamido)-2-methylbenzamido)-1H-pyrrolo[2,3-b]pyridine-2-carboxylate] was run?
A: 1 to 100 nM

Q: And the inhibition at 10 µM (Src kinase)?
A: > 50%

Q: And the IC50 [1, 2]?
A: 10 nM

Q: What about the IC50 [1, 3] of the same compound?
A: < 10 nM

Q: What about the IC50 [1, 4] of the same compound?
A: 10 nM

Q: What about the inhibition at 10 µM (Abl WT) of the same compound?
A: > 50%

Q: What about the IC50 (Abl WT) of the same compound?
A: < 1 nM

Q: What about the inhibition at 10 µM (Abl T315I) of the same compound?
A: > 50%

Q: And the IC50 (Abl T315I)?
A: 100 to 10000 nM
